Results reported in patent US7423020B2, “Treatment of mood disorders by administration of SMR1” (Institut Pasteur, priority 2001, dated 2008).
Several values for one entry are separate records, joined by “and”; a condition that tells them apart may be missing. Equal values may be shown once. Entries after “also recorded” stand apart in the source; their conditions may differ. Where a SMILES comes first, the peptide text is derived from it.

Tests used:
male Wistar/AF EOPS rats [1] = experiment: Behavioral despair test (forced swimming); format: in vivo, rat; design: change of period of immobility, retest compared with test: dose or concentration left out as unconfirmed; conditions: for Immobility period, Retest / Immobility period, Test: first 5 minutes, n = 10; for Immobility period, Test: test session before any treatment
NEP = target: T1, NEP (Rattus norvegicus, UniProt P07861); experiment: 3H-Substance P hydrolysis by rat spinal cord membrane preparations; format: biochemical
T1 construct: incubations of membrane and fresh tissue slice preparations from nervous tissues; from tissue; host or cells: rat spinal cord (dorsal zone), fresh slices or 100 000 x g membrane fraction
T1 sequence (P07861 1-750): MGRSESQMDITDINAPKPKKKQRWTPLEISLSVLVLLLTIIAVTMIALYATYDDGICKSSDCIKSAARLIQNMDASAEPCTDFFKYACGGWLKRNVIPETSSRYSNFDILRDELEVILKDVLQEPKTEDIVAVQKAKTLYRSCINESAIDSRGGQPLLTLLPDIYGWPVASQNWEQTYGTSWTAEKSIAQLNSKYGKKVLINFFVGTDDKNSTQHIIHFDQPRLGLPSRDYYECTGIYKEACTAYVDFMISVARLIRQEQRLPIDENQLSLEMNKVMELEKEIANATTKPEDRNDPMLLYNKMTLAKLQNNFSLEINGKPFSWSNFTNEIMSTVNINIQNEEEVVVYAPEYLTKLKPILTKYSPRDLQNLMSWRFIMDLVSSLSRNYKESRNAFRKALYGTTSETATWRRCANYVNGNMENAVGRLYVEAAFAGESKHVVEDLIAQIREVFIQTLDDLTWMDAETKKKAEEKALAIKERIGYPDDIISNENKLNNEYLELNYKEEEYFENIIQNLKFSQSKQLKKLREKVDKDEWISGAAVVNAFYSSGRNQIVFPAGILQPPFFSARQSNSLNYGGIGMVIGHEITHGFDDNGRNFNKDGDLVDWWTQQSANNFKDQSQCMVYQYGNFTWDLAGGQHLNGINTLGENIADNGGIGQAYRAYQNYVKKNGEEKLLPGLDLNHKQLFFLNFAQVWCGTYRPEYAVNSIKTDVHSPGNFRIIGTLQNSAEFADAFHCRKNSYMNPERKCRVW
Description: The organs dissected out and washed in ice-cold KRBG are homogenized at 4° C. in 10 volumes (vol./wt.) of 50 mM Tris/HCl buffered at pH 7.2, using a Teflon-glass homogenizer (3×5 sec.). A first centrifugation of 5 min. at 1000×g and 4° C. makes it possible to remove the tissular debris and the nuclei in the pellet. A second centrifugation of the supernatant at 100 000×g and 5° C. concentrates the membrane fraction into the pellet, which will be superficially washed three times with cold Tris/HCl buffer and resuspended in fresh buffer using a Kontes homogenizer, aliquoted and stored at -80° C. while waiting to be used as enzyme source, at least until three months. For the experiments of analysis of the NEP peptidase activity, an ex vivo model using incubations of membrane and fresh tissue slice preparations from nervous tissues that are known to be appropriate for exploring NEP peptidase activity: i.e. the dorsal zone of rat spinal cord, was first developed. The metabolism rate of the NEP-sensitive peptides was measured using the both NEP substrates involved in the signaling of the nociceptive response: the neuropeptides Met-enkephalin and Substance P. […] (NEN, 12.5-25 nM) were used. The objective was to measure the NEP-specific endoproteolysis of these substrates. […] The radioactivity of eluted and isolated compounds is determined by liquid scintillation spectrometry.

male Wistar/AF EOPS rats [2] = experiment: Behavioral despair test (forced swimming); format: in vivo, rat
Description: Forty male Wistar/AF EOPS rats (Iffa-Credo Breeding Centre, 69-St-Germain sur l'Arbresle, France), weighing 300 to 320 g, were used. On arrival, the rats were labelled and distributed randomly in pairs into type F polycarbonate cages (48×27×20 cm, U.A.R., 91-Epinay-Sur-Orge, France). The animals were stabled in an air-conditioned animal house, at a temperature of 22-24° C. The rats were given food (M25 croquettes, Ets Pietrement, 77-Provins, France) and drink ad libitum and were subjected to a 12-hour light-darkness cycle.
After one week of familiarization with the laboratory conditions, the rats were weighed and distributed randomly into 3 treatment groups (n=12). The rats of the different groups will all be handled in the same way and under the same conditions.
The behavioral despair test takes place over two sessions: • a 15-minute test session; • a 5-minute retest session, performed 24 hours later.
During the test session, the rat was subjected to forced swimming in a Plexiglas cylinder (20 cm in diameter and 50 cm in height, containing 25 cm of water at 25° C.) and its behavior was recorded over 15 minutes. At the end of the test, the rat was removed from the water, dried gently, treated and then returned to its dwelling cage.
During the retest, 24 hours later, the rat was again placed in the water and its behavior was recorded over 5 minutes.
The recorded variables are the period of immobility during the first 5 minutes of both the test and the retest.
The peptide FG-005 (SMR1-QHNPR) (SEQ ID NO: 1) was suspended at a rate of 500 μg per 5 ml of 0.01N acetic acid, and then diluted with PBS to be administered at doses of 50 and 100 μg/kg via the i.v. route into the dorsal caudal vein of the rat, immediately after the test and 300 and 5 minutes before the retest the following day.
A bilateral probability paired t test was used to compare the two periods of immobility of the test with those of the retest in each of the groups. The results are expressed as an average ±standard error of mean (SEM)(FIG. 4). The statistical and graphical processing was performed using Statview5 and DeltaGraph® Pro 3.5 software.

IC50 (NEP; 3H-Substance P 12.5 nM, 10 min at 25° C., read-out: IC50 (concentration reducing by half the degradation of 3H-substance P) (converted)): ~100 nM and 100 nM
Structure (SMILES): N=C(N)NCCC[C@H](NC(=O)[C@@H]1CCCN1C(=O)[C@H](CC(N)=O)NC(=O)[C@H](Cc1c[nH]cn1)NC(=O)[C@@H](N)CCC(N)=O)C(=O)O [SMR1-QHNPR, QHNPR] (H-QHNPR-OH; N-terminus and C-terminus assumed)
Immobility period, Retest (male Wistar/AF EOPS rats [1]; 50 μg/kg i.v., 1440, 300, 5 min before the retest): 141.20 ± 21.28
Immobility period, Retest (male Wistar/AF EOPS rats [1]; 100 μg/kg i.v., 1440, 300, 5 min before the retest): 121.50 ± 17.47
Immobility period, Test (male Wistar/AF EOPS rats [1]; FG-50 group, 50 μg/kg i.v.): 119.00 ± 13.79
Immobility period, Test (male Wistar/AF EOPS rats [1]; FG-100 group, 100 μg/kg i.v.): 138.30 ± 11.03
change of period of immobility, retest compared with test (male Wistar/AF EOPS rats [1]; dose of 100): reduce it
protection of Substance P / NEP inhibitory potency compared with reference inhibitors (NEP; FIG. 3-B): equivalent to that obtained with Phosphoramidon; also recorded: equivalent to that of two well-known NEP-specific inhibitors, Thiorphan and Phosphoramidon
overall effect in the behavioral despair test (male Wistar/AF EOPS rats [2]; FG-005 50 and 100 μg/kg i.v., 8-OH-DPAT as reference substance): antidepressant effect
change of period of immobility, retest compared with test (male Wistar/AF EOPS rats [2]; dose of 50 μg/kg): increase their period of immobility during the retest
change of period of immobility, retest compared with test (male Wistar/AF EOPS rats [2]; doses of 50 and 100 μg/kg, i.v., immediately after the test and 300 and 5 minutes before the retest): do not increase their periods of immobility during the retest
